From patent publication US9737493B2, “Compositions and methods for modulating DNMT1 inhibitor activity” (University of Louisville Research Foundation, Inc., priority 2012, dated 2017)

How the values were obtained:
[1] = test system: U937 cells; assay: Annexin/PI flow cytometric cell death analysis; format: cell-based, human; details: U937, 50 and 100 μM BSO, 1 μM XB05, 72 h
Method: Data shown are representative of three independent experiments. (B) The cell lines indicated were treated with DMSO vehicle or XB05 (1 μM for U937 and Hs27, or 2 μM for A549) for the timepoints indicated. (C) The cell lines indicated were treated with DMSO vehicle, XB05 (1 μM for U937 and Hs27, or 2 μM for A549) or Thapsigargin positive control (2 μM) for 24 h. Densitometry was performed to quantify western blot band intensities for phospho-eIF2α (ser51), total eIF2α and BiP (representative blot shown in FIG. 8D). All values were normalized to DMSO vehicle control. Bar graphs indicate the average band intensity for three independent experiments, +/−the standard error of the mean. Statistical significance for XB05 compared to vehicle is indicated (*p≦0.05 and **p≦0.01).
Flow Cytometric Assays. Analyses were performed using a FACScalibur flow cytometer (BD Biosciences, Mountain View, Calif.) and FlowJo software (Tree Star, Inc., Ashland, Oreg.). Cells were treated as indicated in the figures and in the Brief Description of the Drawings. Cells were harvested by using TrypLE Cell Dissociation Reagent (Life Technologies). […] Cells were then washed twice with PBS, re-suspended at a density of 1×10^6 cells/mL in PBS and analyzed by flow cytometry.

[2] = test system: A549 cells; format: cell-based; details: for effect of antioxidant on XB05-induced cell death: A549, annexin/PI, in combination with XB05, 72 h
Method: Some cells were treated with buthionine sulfoximine (BSO, 200 μM) plus diethyl maleate (DEM, 1 mM) for 3 h as a positive control for GSH depletion. Bar graph indicates mean+/−SEM from three independent experiments. […] Membranes were stripped and reprobed for Ku-70 as a loading control.
Flow Cytometric Assays. Analyses were performed using a FACScalibur flow cytometer (BD Biosciences, Mountain View, Calif.) and FlowJo software (Tree Star, Inc., Ashland, Oreg.). Cells were treated as indicated in the figures and in the Brief Description of the Drawings. Cells were harvested by using TrypLE Cell Dissociation Reagent (Life Technologies). For cell death analyses, cells (adherent and detached cells) were stained with annexin-V-FITC and propidium iodide (PI) using the Apoptosis Detection Kit (BD Biosciences, San Jose, Calif.), according to the manufacturer's instructions. For cell-cycle distribution, cells were fixed, and stained with PI using the Cycle Test Plus kit (Becton Dickinson, Franklin Lakes, N.J.). For detection of γ-H2AX, cells were washed with PBS and fixed in 4% paraformaldehyde in PBS for 10 min at 37° C. […] After washing with PBS, cells were re-suspended in PBS containing 1 μg/mL PI to allow exclusion of non-viable cells. For detection of mitochondrial superoxide, cells were harvested, washed with PBS and stained with 5 μM MitoSOX™ Red (Life Technologies) in warm PBS for 10 min at 37° C. Cells were then washed twice with PBS, re-suspended at a density of 1×10^6 cells/mL in PBS and analyzed by flow cytometry.

[3] = test system: Colo-205 xenografts; assay: Colo-205 xenografts in nude mice; format: in vivo; details: 25 mg/kg daily for 21 days, i.v.
[4] = test system: A549 non-small cell lung cancer cells; assay: MTT cell proliferation assay; format: cell-based, human; details: A549, MTT, in combination with XB05, 72 h
Method: (§1) Cell Proliferation Assays. The antiproliferative activity of XB05 was tested using a previously published 3-(4,5-dimethylthiazol-2-yl)-2,5-diphenyltetrazolium bromide (MTT) assay protocol (Girvan et al., “AGRO100 inhibits activation of nuclear factor-kappaB (NF-kappaB) by forming a complex with NF-kappaB essential modulator (NEMO) and nucleolin” Molecular Cancer Therapeutics (2006) Vol. 5, No. 7, pp. 1790-1799). Briefly, cells were seeded in quadruplicate wells in 96-well plates and allowed to adhere overnight. […] Plates were incubated with XB05 for 72 h, during which the cell culture medium was not changed. Cell viability was determined and the background corresponding to medium alone (no cells) was subtracted. Data were analyzed as described in the Brief Description of the Drawings.
(§2) XB05 has Cancer-Selective Antiproliferative Activity. XB05 was tested to determine its antiproliferative activity in a variety of human cell lines that are derived from malignant tissues or from non-malignant (immortalized but not transformed) cells and listed in FIG. 1B. As described in Materials and Methods, cells were treated with varying concentrations of XB05 for 72 h and evaluated using the MTT cell proliferation assay.

[5] = test system: U937 myeloid leukemia cells; assay: MTT cell proliferation assay; format: cell-based, human; details: U937, MTT and flow cytometric assays, in combination with XB05, 72 h
Method: as §1, §2

[6] = test system: A549 cells; details: A549, in combination with XB05, 10 days
Method: (C) Clonogenic cell survival assays were conducted in A549 cells treated as indicated and grown in culture for 10 days (see Methods). Bar graph indicates mean values (+/−SEM) for colony growth inhibition from 3 independent experiments. […] Clonogenic Assays. Cells were plated at low density (300 cells/well) in 6-well tissue culture plates, and allowed to adhere overnight. Where indicated, the medium was then replaced with fresh medium containing antioxidants or vehicle (sterile ultrapure H2O). XB05 or vehicle control (DMSO) was then added directly to the medium at the concentrations indicated. After 10 days, cells were fixed with 4% paraformaldehyde in PBS and stained with Accustain Crystal Violet Solution (Sigma Aldrich) washed and air-dried. Colonies were counted using the cell counter feature in the Image J software, available from the National Institute of Health (<<rsbweb.nih.gov/ij/download.html>>).

[7] = test system: MDA-MB-231 cells; assay: Clonogenic cell survival assay; format: cell-based, human; details: MDA-MB-231, NAC and GSH 5 mM, AA 100 μM, 10 days
Method: Clonogenic cell survival assays were conducted with MDA-MB-231 cells treated as indicated and grown in culture for 10 days (see Methods). Clonogenic Assays. Cells were plated at low density (300 cells/well) in 6-well tissue culture plates, and allowed to adhere overnight. Where indicated, the medium was then replaced with fresh medium containing antioxidants or vehicle (sterile ultrapure H2O). XB05 or vehicle control (DMSO) was then added directly to the medium at the concentrations indicated. After 10 days, cells were fixed with 4% paraformaldehyde in PBS and stained with Accustain Crystal Violet Solution (Sigma Aldrich) washed and air-dried. Colonies were counted using the cell counter feature in the Image J software, available from the National Institute of Health (<<rsbweb.nih.gov/ij/download.html>>).

[8] = test system: U937 cells; assay: Clonogenic cell survival assay; format: cell-based, human; details: U937, 100 μM BHA, data not shown

**Q.** Which results are given for `CCCCS(=N)(=O)CCC(N)C(=O)O` (centres unmarked) [BSO, buthionine sulfoximine]?
**A.** cytotoxicity of BSO plus XB05 compared to XB05 alone [1]: enhanced cytotoxicity compared to XB05 treatment alone; cytotoxicity of BSO plus XB05 compared to XB05 alone ([2]; A549, 50 and 100 μM BSO, 2 μM XB05, 72 h): enhanced cytotoxicity compared to XB05 treatment alone

**Q.** With `CC/C=C\CCC(O)C#CC(F)(F)Br` (centres unmarked) [LD-01-072] as the compound, how does the “in vivo antitumor efficacy” value [3] read?
**A.** The value was “in vivo antitumor efficacy”.

**Q.** And the “non-specific toxicity judged by body weight” value [3]?
**A.** The value was “no evidence of any severe non-specific toxicities”.

**Q.** How did the “effect of antioxidant on antiproliferative effects of XB05” value [4] turn out when `CC(=O)N[C@@H](CS)C(=O)O` [NAC, N-acetyl cysteine] was run?
**A.** Its value is “diminish the antiproliferative effects of XB05”.

**Q.** What about the “protection from antiproliferative and cytotoxic effects of XB05” value [5] of the same compound?
**A.** The value was “protect these cells from the antiproliferative and cytotoxic effects of XB05”.

**Q.** What about the “effect of antioxidant on XB05 effect on clonogenic survival” value [6] of the same compound?
**A.** Its value is “abrogated the effect of XB05 on clonogenic survival”.

**Q.** What about the “protection from cytotoxic effects of XB05” value [7] of the same compound?
**A.** Its value is “protect these cells from the cytotoxic effects of XB05”.

**Q.** What about the “effect of antioxidant on XB05-induced cell death” value [2] of the same compound?
**A.** The value was “protected cells from XB05-induced apoptosis and nonapoptotic cell death”.

**Q.** Which results are given for `N[C@@H](CCC(=O)N[C@@H](CS)C(=O)NCC(=O)O)C(=O)O` [GSH, reduced glutathione]?
**A.** effect of antioxidant on antiproliferative effects of XB05 [4]: diminish the antiproliferative effects of XB05; protection from antiproliferative and cytotoxic effects of XB05 [5]: protect these cells from the antiproliferative and cytotoxic effects of XB05; effect of antioxidant on XB05 effect on clonogenic survival [6]: abrogated the effect of XB05 on clonogenic survival; protection from cytotoxic effects of XB05 [7]: protect these cells from the cytotoxic effects of XB05; effect of antioxidant on XB05-induced cell death [2]: protected cells from XB05-induced apoptosis and nonapoptotic cell death

**Q.** With `O=C1O[C@H]([C@@H](O)CO)C(O)=C1O` [AA, L-ascorbic acid] as the compound, how does the “effect of antioxidant on antiproliferative effects of XB05” value [4] read?
**A.** Its value is “no effect”.

**Q.** What about the “protection from antiproliferative and cytotoxic effects of XB05” value [5] of the same compound?
**A.** Its value is “not”.

**Q.** What about the “effect of antioxidant on XB05 effect on clonogenic survival” value [6] of the same compound?
**A.** The value was “no protective effect”.

**Q.** What about the “protection from cytotoxic effects of XB05” value [7] of the same compound?
**A.** The value was “not”.

**Q.** What about the “effect of antioxidant on XB05-induced cell death” value [2] of the same compound?
**A.** Its value is “slightly enhanced the pro-apoptotic activity of XB05”.

**Q.** With `COc1ccc(O)c(C(C)(C)C)c1` [BHA, butylated hydroxyanisole] as the compound, how does the “protection from XB05 activity” value [8] read?
**A.** Its value is “no protective effect”.
